# Assay results reported in patent EP4483954A1 (Masarykova Univerzita, priority 2023, dated 2025).
# What was measured:
# Format in all cases: biochemical
# CLK2 (h) = target: T1, CLK2 (h) (Homo sapiens, UniProt P49760); experiment: radiometric kinase assay (KinaseProfiler, Eurofins), CLK2; conditions: in vitro radiometric kinase assay, tested at 1 nM to 10 000 nM, no pre-incubation; read-out: inhibitory activities (IC50 values) CLK2
# T1 construct: purchased Eurofins (KinaseProfiler)
# Protocol: (§1) The compounds were profiled in the radiometric assays (KinaseProfiler, Eurofins).
# (§2) Briefly, kinases were diluted in the buffer shown below prior to addition to the reaction mix: • CDKL3, TAF1L: 20 mM Tris/HCl pH 8.5, 0.2 mM EDTA, 0.1% β-mercaptoethanol, 0.01% Brij-35, 5% glycerol, 1 mg/ml BSA; • Haspin: 15 mM MOPS, 0.75 mM EDTA, 0.0075% Brij-35, 3.75% Glycerol, 150 mM NaCl, 0.1% β-mercaptoethanol, 1 mg/mLBSA; • CDKL4, CLK2, PIM1, TRB2: […], 1 mM EDTA, 0.01% Brij-35, 5% Glycerol, 0.1% β-mercaptoethanol, 1 mg/mL BSA.
# (§3) All compounds were prepared to 50x final assay concentration in 100% DMSO. This working stock of the compound was added to the assay well as the first component in the reaction, followed by the remaining components as detailed in the general assay protocols below. There was no pre-incubation step between the compound and the kinase prior to initiation of the reaction.
# CLK2 (h) was incubated with 8 mM MOPS pH 7.0, 0.2 mM EDTA, 20 µM […](p)EDEEE (SEQ ID NO. 2), 10 mM magnesium acetate and γ-^33P-ATP (specific activity and concentration as required). The reaction was initiated by the addition of the Mg/ATP mix. After incubation for 40 minutes at room temperature, the reaction was stopped by the addition of phosphoric acid to a concentration of 0.5%. An aliquot of the reaction was then spotted onto a filter and washed four times for 4 minutes in 0.425% phosphoric acid and once in methanol prior to drying and scintillation counting.
# (§4) Kinase activity data were expressed as the percent remaining kinase activity in tested samples compared to the vehicle (DMSO) reactions. The compounds were tested at the following concentrations: 1 nM, 3 nM, 10 nM, 30 nM, 100 nM, 300 nM, 1000 nM, 3000 nM, and 10 000 nM; IC50 values and curve fits were then obtained.
# Haspin (h) = target: T2, Haspin (h) (Homo sapiens, UniProt Q8TF76); experiment: radiometric kinase assay (KinaseProfiler, Eurofins), Haspin; conditions: in vitro radiometric kinase assay, tested at 1 nM to 10 000 nM, no pre-incubation; read-out: inhibitory activities (IC50 values) Haspin
# T2 construct: purchased Eurofins (KinaseProfiler)
# T2 sequence (Q8TF76 1-798): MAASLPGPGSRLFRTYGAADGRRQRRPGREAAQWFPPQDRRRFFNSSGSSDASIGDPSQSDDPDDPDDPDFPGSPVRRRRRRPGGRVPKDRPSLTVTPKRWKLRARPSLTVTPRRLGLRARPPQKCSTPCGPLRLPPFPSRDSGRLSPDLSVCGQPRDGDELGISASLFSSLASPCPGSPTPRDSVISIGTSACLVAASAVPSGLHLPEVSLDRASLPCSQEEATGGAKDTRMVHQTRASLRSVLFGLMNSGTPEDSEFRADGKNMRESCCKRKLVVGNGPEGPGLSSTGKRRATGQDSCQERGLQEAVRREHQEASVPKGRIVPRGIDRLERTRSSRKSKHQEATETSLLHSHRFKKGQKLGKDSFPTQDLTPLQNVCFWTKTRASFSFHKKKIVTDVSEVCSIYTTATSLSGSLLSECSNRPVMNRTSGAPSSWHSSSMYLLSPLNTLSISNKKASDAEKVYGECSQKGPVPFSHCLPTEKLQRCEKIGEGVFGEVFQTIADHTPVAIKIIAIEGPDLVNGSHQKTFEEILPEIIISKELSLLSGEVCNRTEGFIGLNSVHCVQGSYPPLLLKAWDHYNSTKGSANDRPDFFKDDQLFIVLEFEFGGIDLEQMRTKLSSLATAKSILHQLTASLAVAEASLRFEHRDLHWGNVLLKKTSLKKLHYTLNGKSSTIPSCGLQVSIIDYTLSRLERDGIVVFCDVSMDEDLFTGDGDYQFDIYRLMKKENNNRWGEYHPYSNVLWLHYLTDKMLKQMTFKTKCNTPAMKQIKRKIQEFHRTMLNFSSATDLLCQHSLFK
# Protocol: as §1, §2, §3
# Haspin (h) was incubated with 8 mM MOPS pH 7.0, 0.2 mM EDTA, 500 µM RARTLSFAEPG (SEQ ID NO. 3), 10 mM magnesium acetate and γ-^33P-ATP (specific activity and concentration as required). The reaction was initiated by the addition of the Mg/ATP mix. After incubation for 40 minutes at room temperature, the reaction was stopped by the addition of phosphoric acid to a concentration of 0.5%. An aliquot of the reaction was then spotted onto a filter and washed four times for 4 minutes in 0.425% phosphoric acid and once in methanol prior to drying and scintillation counting.
# as §4
# PIM1 (h) = target: T3, PIM1 (h) (Homo sapiens, UniProt P11309); experiment: radiometric kinase assay (KinaseProfiler, Eurofins), PIM1; conditions: in vitro radiometric kinase assay, tested at 1 nM to 10 000 nM, no pre-incubation; read-out: inhibitory activities (IC50 values) PIM1
# T3 construct: purchased Eurofins (KinaseProfiler)
# T3 sequence (P11309 whole entry): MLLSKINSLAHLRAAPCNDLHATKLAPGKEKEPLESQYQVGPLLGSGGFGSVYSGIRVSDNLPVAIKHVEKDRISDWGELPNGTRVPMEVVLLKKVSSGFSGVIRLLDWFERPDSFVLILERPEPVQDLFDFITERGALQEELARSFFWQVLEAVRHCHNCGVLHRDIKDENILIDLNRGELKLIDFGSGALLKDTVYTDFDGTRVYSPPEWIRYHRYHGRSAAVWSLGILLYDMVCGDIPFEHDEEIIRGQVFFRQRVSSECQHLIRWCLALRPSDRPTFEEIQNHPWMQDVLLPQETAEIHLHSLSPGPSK
# Protocol: as §1, §2, §3
# PIM1 (h) was incubated with 8 mM MOPS pH 7.0, 0.2 mM EDTA, 100 µM KKRNRTLTV (SEQ ID NO. 4), 10 mM magnesium acetate and γ-^33P-ATP (specific activity and concentration as required). The reaction was initiated by the addition of the Mg/ATP mix. After incubation for 40 minutes at room temperature, the reaction was stopped by the addition of phosphoric acid to a concentration of 0.5%. An aliquot of the reaction was then spotted onto a filter and washed four times for 4 minutes in 0.425% phosphoric acid and once in methanol prior to drying and scintillation counting.
# as §4
# CDKL3(h) = target: T4, CDKL3(h) (Homo sapiens, UniProt Q8IVW4); experiment: radiometric kinase assay (KinaseProfiler, Eurofins), CDKL3; conditions: in vitro radiometric kinase assay, tested at 1 nM to 10 000 nM, no pre-incubation; read-out: inhibitory activities (IC50 values) CDKL3
# T4 construct: purchased Eurofins (KinaseProfiler)
# T4 sequence (Q8IVW4 whole entry): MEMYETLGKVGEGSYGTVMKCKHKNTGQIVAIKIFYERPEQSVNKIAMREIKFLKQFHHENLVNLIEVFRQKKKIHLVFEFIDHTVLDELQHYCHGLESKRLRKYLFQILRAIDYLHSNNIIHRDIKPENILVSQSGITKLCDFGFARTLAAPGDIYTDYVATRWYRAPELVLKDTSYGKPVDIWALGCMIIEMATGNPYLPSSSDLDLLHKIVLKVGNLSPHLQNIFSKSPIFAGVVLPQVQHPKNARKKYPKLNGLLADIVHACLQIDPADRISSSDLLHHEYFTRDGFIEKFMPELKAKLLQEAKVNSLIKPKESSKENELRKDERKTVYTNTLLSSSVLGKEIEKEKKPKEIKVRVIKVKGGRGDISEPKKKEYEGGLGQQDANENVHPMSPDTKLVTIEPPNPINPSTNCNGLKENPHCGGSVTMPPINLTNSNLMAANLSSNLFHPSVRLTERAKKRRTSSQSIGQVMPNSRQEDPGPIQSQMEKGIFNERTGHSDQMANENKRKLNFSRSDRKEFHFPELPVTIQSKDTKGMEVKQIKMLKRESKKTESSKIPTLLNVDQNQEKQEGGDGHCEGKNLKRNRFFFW
# Protocol: as §1, §2, §3
# CDKL3(h) was incubated with 8 mM MOPS pH 7.0, 0.2 mM EDTA, 250 µM RRRFRPASPLRGPPK (SEQ ID NO. 1), 10 mM magnesium acetate and γ-^33P-ATP (specific activity and concentration as required). The reaction was initiated by the addition of the Mg/ATP mix. After incubation for 120 minutes at room temperature, the reaction was stopped by the addition of phosphoric acid to a concentration of 0.5%. An aliquot of the stopped reaction was spotted onto a filter and washed four times for 4 minutes in 0.425% phosphoric acid and once in methanol prior to drying and scintillation counting.
# as §4
# T1 sequence (P49760 whole entry): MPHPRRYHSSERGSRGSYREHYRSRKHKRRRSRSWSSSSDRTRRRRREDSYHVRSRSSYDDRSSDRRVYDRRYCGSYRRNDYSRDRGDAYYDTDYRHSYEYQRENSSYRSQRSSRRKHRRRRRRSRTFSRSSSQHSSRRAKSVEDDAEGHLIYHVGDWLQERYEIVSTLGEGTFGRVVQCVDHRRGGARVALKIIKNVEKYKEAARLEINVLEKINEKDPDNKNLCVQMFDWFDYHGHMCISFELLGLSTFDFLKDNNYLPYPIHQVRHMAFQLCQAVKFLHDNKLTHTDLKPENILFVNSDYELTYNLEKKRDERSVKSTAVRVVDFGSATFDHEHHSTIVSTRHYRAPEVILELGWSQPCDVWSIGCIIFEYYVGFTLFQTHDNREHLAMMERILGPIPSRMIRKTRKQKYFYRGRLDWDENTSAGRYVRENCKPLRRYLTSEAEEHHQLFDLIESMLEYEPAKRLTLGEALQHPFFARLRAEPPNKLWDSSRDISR
SMILES,IC50 (CLK2 (h)) [nM],IC50 (Haspin (h)) [nM],IC50 (PIM1 (h)) [nM],IC50 (CDKL3(h)) [nM]
"CCn1cc(-c2ccc3scc(-c4ccncc4)c3n2)cn1 [Preparative Example 77, 5-(1-ethyl-1H-pyrazol-4-yl)-3-(pyridin-4-yl)thieno[3,2-b]pyridine]",3000 to 10000,500 to 3000,500 to 3000,500 to 3000
"Cn1cc(-c2ccc3scc(-c4cccnc4)c3n2)cn1 [Preparative Example 11, 5-(1-methyl-1H-pyrazol-4-yl)-3-(pyridin-3-yl)thieno[3,2-b]pyridine]",3000 to 10000,500 to 3000,500 to 3000,100 to 499
"Cn1cc(-c2ccc3scc(-c4cnn(C)c4)c3n2)cn1 [Preparative Example 63, 3,5-bis(1-methyl-1H-pyrazol-4-yl)thieno[3,2-b]pyridine]",500 to 3000,100 to 499,100 to 499,100 to 499
"c1ccc(Cn2cc(-c3ccc4scc(-c5ccncc5)c4n3)cn2)cc1 [Preparative Example 81, 5-(1-benzyl-1H-pyrazol-4-yl)-3-(pyridin-4-yl)thieno[3,2-b]pyridine]",3000 to 10000,100 to 499,100 to 499,500 to 3000
"Cc1nsc(-c2csc3ccc(-c4cnn(C)c4)nc23)n1 [Preparative Example 71, 3-(3-methyl-1,2,4-thiadiazol-5-yl)-5-(1-methyl-1H-pyrazol-4-yl)thieno[3,2-b]pyridine]",500 to 3000,20 to 99,100 to 499,100 to 499
"Cn1ncc(-c2ccc3scc(-c4ccncc4)c3n2)c1CC1CC1 [Preparative Example 82, 5-(5-(cyclopropylmethyl)-1-methyl-1H-pyrazol-4-yl)-3-(pyridin-4-yl)thieno[3,2-b]pyridine]",500 to 3000,100 to 499,20 to 99,500 to 3000
"Cn1cc(-c2ccc3scc(-c4ccc5ncnn5c4)c3n2)cn1 [Preparative Example 53, 3-([1,2,4]-triazolo[1,5-a]pyridin-6-yl)-5-(1-methyl-1H-pyrazol-4-yl)thieno[3,2-b]pyridine]",500 to 3000,20 to 99,100 to 499,100 to 499
"Cn1cc(-c2ccc3scc(-c4ccnnc4)c3n2)cn1 [Preparative Example 40, 5-(1-methyl-1H-pyrazol-4-yl)-3-(pyridazin-4-yl)thieno[3,2-b]-pyridine]",3000 to 10000,100 to 499,500 to 3000,500 to 3000
"Cn1cc(-c2ccc3scc(-c4ccncc4)c3n2)nn1 [Preparative Example 93, 5-(1-methyl-1H-1,2,3-triazol-4-yl)-3-(pyridin-4-yl)thieno[3,2-b]pyridine]",3000 to 10000,500 to 3000,500 to 3000,3000 to 10000
"Cn1cc(-c2ccc3scc(C(=O)c4ccccc4)c3n2)cn1 [Preparative Example 73, (5-(1-methyl-1H-pyrazol-4-yl)thieno[3,2-b]pyridin-3-yl)(phenyl)-methanone]",3000 to 10000,3000 to 10000,3000 to 10000,3000 to 10000
"Cn1cc(-c2ccc3scc(-c4ccncc4)c3n2)c(N)n1 [Preparative Example 84, 1-methyl-4-(3-(pyridin-4-yl)thieno[3,2-b]pyridin-5-yl)-1H-pyrazol-3-amine]",3000 to 10000,3000 to 10000,3000 to 10000,500 to 3000
"Cn1cc(-c2ccc3scc(-c4ccccc4)c3n2)cn1 [Preparative Example 2, 5-(1-methyl-1H-pyrazol-4-yl)-3-phenylthieno[3,2-b]pyridine]",3000 to 10000,100 to 499,500 to 3000,100 to 499
"Cn1ccc(Nc2ccc3scc(-c4ccncc4)c3n2)n1 [Preparative Example 99, N-(1-methyl-1H-pyrazol-3-yl)-3-(pyridin-4-yl)thieno[3,2-b]pyridin-5-amine]",500 to 3000,20 to 99,500 to 3000,100 to 499

# Second part, the compound after the results:
IC50 (CLK2 (h)) [nM],IC50 (Haspin (h)) [nM],IC50 (PIM1 (h)) [nM],IC50 (CDKL3(h)) [nM],SMILES
3000 to 10000,100 to 499,3000 to 10000,500 to 3000,"COc1cc(-c2ccn(C)n2)nc2c(-c3ccncc3)csc12 [Preparative Example 165, 7-methoxy-5-(1-methyl-1H-pyrazol-3-yl)-3-(pyridin-4-yl)thieno[3,2-b]pyridine]"
3000 to 10000,20 to 99,3000 to 10000,3000 to 10000,"Cc1cc2scc(-c3ccncc3)c2nc1-c1ccn(C)n1 [Preparative Example 151, 6-methyl-5-(1-methyl-1H-pyrazol-3-yl)-3-(pyridin-4-yl)thieno[3,2-b]pyridine]"
3000 to 10000,500 to 3000,3000 to 10000,500 to 3000,"Cc1cc(-c2cnn(C)c2)nc2c(-c3ccncc3)csc12 [Preparative Example 157, 7-methyl-5-(1-methyl-1H-pyrazol-4-yl)-3-(pyridin-4-yl)thieno[3,2-b]pyridine]"
3000 to 10000,3000 to 10000,3000 to 10000,3000 to 10000,"Fc1cc(-c2ccc3scc(-c4ccccc4)c3n2)cc(F)c1F [Preparative Example 122, 3-phenyl-5-(3,4,5-trifluorophenyl)thieno[3,2-b]pyridine]"
3000 to 10000,500 to 3000,500 to 3000,500 to 3000,"Cc1cc2scc(-c3ccncc3)c2nc1-c1cnn(C)c1 [Preparative Example 150, 6-methyl-5-(1-methyl-1H-pyrazol-4-yl)-3-(pyridin-4-yl)thieno[3,2-b]pyridine]"
3000 to 10000,500 to 3000,3000 to 10000,500 to 3000,"Cc1sc2ccc(-c3cnn(C)c3)nc2c1-c1ccncc1 [Preparative Example 142, 2-methyl-5-(1-methyl-1H-pyrazol-4-yl)-3-(pyridin-4-yl)thieno[3,2-b]pyridine]"
